Source: ChEMBL document CHEMBL1201862, “PubChem BioAssay data set” (2004)
One block for each compound: values may come before it. The source made the active and inactive calls.

Experiments:
[1] = target: Peroxisome proliferator-activated receptor gamma/Nuclear receptor coactivator 3 (Homo sapiens, UniProt P37231); experiment: (§1) TR-FRET dose response biochemical High Throughput Screening assay for agonists of the steroid receptor coactivator 3 (SRC-3) recruitment by the peroxisome proliferator-activated receptor gamma (PPAR gamma): non-selective agonists. [Related pubchem assays: 1301 (Confirmation screen.), 1048 (Primary screen.)]; format: functional
[2] = target: Peroxisome proliferator-activated receptor gamma/Nuclear receptor coactivator 1 (Homo sapiens, UniProt P37231); experiment: as §1, with “1 (SRC-1)” for “3 (SRC-3)”, “assays (depositor defined):AID1300, AID1808, AID504735, AID631]” for “assays: 1301 (Confirmation screen.), 1048 (Primary screen.)]”; format: protein assay
[3] = target: Peroxisome proliferator-activated receptor gamma/Nuclear receptor coactivator 2 (Homo sapiens, UniProt P37231); experiment: TR-FRET dose response biochemical High Throughput Screening assay for agonists of the steroid receptor coactivator 2 (SRC-2) recruitment by the peroxisome proliferator-activated receptor gamma (PPAR gamma): non-selective agonists. [Related pubchem assays: 1297, 1032 ]; format: functional
Exodeoxyribonuclease V = Exodeoxyribonuclease V (Escherichia coli (strain K12), UniProt P04993+P07648+P08394); experiment: RecBCD inhibition via phage-restricted bacterial growth – absorbance, V66 E. coli, mutant T4 phage, counter-screen for AddAB inhibitor project, dose response (AID 492957); format: functional, cell-based, Escherichia coli str. K-12 substr. MG1655
[4] = Counterscreen for AddAB inhibitors: absorbance-based bacterial cell-based high throughput dose response assay for inhibitors of bacterial viability. [Related pubchem assays (depositor defined):AID435030, AID449728, AID449731, AID488942, AID488955, AID488956]; format: functional
[5] = target: T1, Alkaline phosphatase, tissue-nonspecific isozyme (Homo sapiens, UniProt P05186); experiment: TNAP enzyme inhibition by screening hits, dose response, selectivity assay for mouse IAP inhibitor project, biochemical, human TNAP, uHTS hits (AID 488906); format: functional
T1 sequence (P05186 whole entry): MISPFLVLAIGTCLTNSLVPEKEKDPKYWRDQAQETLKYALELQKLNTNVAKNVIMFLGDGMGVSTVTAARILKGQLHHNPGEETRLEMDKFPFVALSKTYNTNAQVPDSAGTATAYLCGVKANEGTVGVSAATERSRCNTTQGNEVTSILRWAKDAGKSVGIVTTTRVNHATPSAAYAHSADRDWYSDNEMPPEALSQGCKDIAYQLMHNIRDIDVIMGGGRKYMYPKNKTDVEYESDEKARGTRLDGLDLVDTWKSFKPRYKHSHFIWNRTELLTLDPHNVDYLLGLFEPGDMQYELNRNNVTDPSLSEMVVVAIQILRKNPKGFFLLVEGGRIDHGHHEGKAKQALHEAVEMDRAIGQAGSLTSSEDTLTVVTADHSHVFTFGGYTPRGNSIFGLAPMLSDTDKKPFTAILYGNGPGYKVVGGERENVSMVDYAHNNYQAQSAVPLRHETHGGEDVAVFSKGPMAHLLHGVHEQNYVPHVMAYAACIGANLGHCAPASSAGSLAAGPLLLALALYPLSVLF

[6] = target: Intestinal-type alkaline phosphatase (Homo sapiens, UniProt P09923); experiment: inhibition of human intestinal alkaline phosphatase – biochemical, dose response (AID 488876); format: functional
[7] = target: Intestinal-type alkaline phosphatase (Mus musculus, UniProt P24822); experiment: PubChem AID 488785; format: functional
Fatty acid synthase [8] = target: T2, Fatty acid synthase (Homo sapiens, UniProt P49327); experiment: inhibition of human FAS-TE enzyme activity – biochemical, kinetic fluorescence intensity, dose response (AID 624326); format: functional;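 further: rate of fluorescence rise from hydrolysis of a fluorogenic O-methyl fluorescein ester substrate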
Fatty acid synthase [9] = target: T2, Fatty acid synthase; experiment: inhibition of human FAS-TE enzyme activity – biochemical, endpoint fluorescence intensity, uHTS hits, dose response (AID 624327); format: functional;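 further: fluorescence from hydrolysis of an O-methyl fluorescein acyl ester substrate by the enzyme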
[10] = (§2) Late stage assay provider results from the probe development effort to identify inhibitors of Protein Phosphatase Methylesterase 1 (PME-1): luminescence-based […] dose response assay to determine cytotoxicity of inhibitor compounds. [Related pubchem assays (depositor defined):AID2130, AID2143, AID2171, AID2174, AID2177, AID2232, AID2233, AID2291, AID2363, AID2365, AID2366, AID2368, AID2369, AID2371, AID463124, AID463130, AID463131, AID463132, AID463146, AID463149] Panel member name: Serum-free Media; format: toxicity
[11] = as §2, with “Fetal Calf Serum” for “Serum-free Media”; format: toxicity
[12] = target: Protein phosphatase methylesterase 1 (Homo sapiens, UniProt Q9Y570); experiment: Late stage assay provider results from the probe development effort to identify inhibitors of protein phosphatase methylesterase 1 (PME-1): Gel-based Activity-Based Protein Profiling (ABPP) IC50 Set 2. [Related pubchem assays (depositor defined):AID2130, AID2143, AID2171, AID2174, AID2177, AID2232, AID2233, AID2291, AID2363, AID2365, AID2366, AID2368, AID2369, AID2371, AID463090, AID463091]; format: functional
[13] = target: T3, Kappa-type opioid receptor (Homo sapiens, UniProt P41145); format: functional
[14] = target: T4, Delta-type opioid receptor (Homo sapiens, UniProt P41143); experiment: HTS Image-Based Screen for Agonists of the DOR Receptor. [Related pubchem assays (depositor defined):AID1777, AID1786, AID2133]; format: functional
[15] = target: T4, Delta-type opioid receptor; experiment: HTS Image-Based Screen for Antagonists of the DOR Receptor. [Related pubchem assays (depositor defined):AID1777, AID1785, AID1786, AID2133]; format: functional
Mu-type opioid receptor = Mu-type opioid receptor (Homo sapiens, UniProt P35372); experiment: HTS Image-Based Screen for Agonists of the MOR Receptor. [Related pubchem assays (depositor defined):AID1777, AID1785, AID1786, AID2133]; format: functional;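 further: imaging of beta-arrestin GFP recruitment into spots after receptor activation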
[16] = target: T3, Kappa-type opioid receptor; format: functional; remark: listed apart in the source
[17] = target: T5, Tyrosine-protein phosphatase non-receptor type 7 (Homo sapiens, UniProt P35236); format: functional
T5 sequence (P35236 whole entry): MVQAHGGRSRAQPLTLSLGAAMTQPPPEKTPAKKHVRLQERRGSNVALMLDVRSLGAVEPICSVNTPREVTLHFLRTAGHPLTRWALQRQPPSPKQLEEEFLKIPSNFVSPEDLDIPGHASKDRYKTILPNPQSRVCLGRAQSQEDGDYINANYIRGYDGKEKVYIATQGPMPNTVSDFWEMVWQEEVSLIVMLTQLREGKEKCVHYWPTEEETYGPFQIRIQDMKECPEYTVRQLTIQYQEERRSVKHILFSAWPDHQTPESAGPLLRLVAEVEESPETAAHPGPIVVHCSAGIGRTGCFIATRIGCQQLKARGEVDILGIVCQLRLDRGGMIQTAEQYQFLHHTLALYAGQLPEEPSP

[18] = target: T6, Tyrosine-protein phosphatase non-receptor type 22 (Homo sapiens, UniProt Q9Y2R2); format: functional
T6 sequence (Q9Y2R2 whole entry): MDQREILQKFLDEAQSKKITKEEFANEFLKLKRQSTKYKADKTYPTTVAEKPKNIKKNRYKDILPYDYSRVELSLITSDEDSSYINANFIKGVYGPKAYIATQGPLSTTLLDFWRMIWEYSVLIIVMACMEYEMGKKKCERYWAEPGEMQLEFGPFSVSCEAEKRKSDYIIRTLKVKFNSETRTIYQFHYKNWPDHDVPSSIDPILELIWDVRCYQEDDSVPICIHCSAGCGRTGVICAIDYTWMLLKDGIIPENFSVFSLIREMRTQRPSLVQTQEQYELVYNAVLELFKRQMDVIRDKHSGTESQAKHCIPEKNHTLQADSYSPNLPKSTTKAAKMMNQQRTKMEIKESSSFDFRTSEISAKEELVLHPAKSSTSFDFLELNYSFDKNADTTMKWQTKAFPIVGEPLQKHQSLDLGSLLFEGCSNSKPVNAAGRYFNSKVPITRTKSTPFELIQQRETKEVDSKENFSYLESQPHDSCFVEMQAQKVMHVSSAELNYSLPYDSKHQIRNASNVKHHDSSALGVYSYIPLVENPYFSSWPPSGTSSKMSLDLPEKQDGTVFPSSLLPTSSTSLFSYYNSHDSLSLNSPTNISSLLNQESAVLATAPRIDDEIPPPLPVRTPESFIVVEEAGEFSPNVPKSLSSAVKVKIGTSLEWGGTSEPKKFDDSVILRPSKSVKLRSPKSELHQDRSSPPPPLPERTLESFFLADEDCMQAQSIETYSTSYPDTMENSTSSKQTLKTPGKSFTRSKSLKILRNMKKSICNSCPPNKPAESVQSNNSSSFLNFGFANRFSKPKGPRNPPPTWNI

[19] = target: T6, Tyrosine-protein phosphatase non-receptor type 22; format: functional; remark: listed apart in the source
Cannabinoid receptor 2 [20] = target: T7, Cannabinoid receptor 2 (Homo sapiens, UniProt P34972); experiment: SAR analysis of antagonists of the Cannabinoid Receptor 2 using an Image-Based Assay - Set 3. [Related pubchem assays (depositor defined):AID2013, AID2026]; format: functional
[21] = target: G-protein coupled receptor 55 (Homo sapiens, UniProt Q9Y2T6); experiment: SAR Analysis of Selective Antagonists of GPR55 using an Image-Based Assay - Set 4. [Related pubchem assays (depositor defined):AID2013, AID2026]; format: functional;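 further: antagonism of response to 5 µM lysophosphatidylinositol agonist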
[22] = target: T8, G-protein coupled receptor 35 (Homo sapiens, UniProt Q9HC97); experiment: SAR analysis of Agonists of the GPR35 Receptor using an Image-Based Assay - Set 4. [Related pubchem assays (depositor defined):AID2013, AID2026]; format: functional
Cannabinoid receptor 2 [23] = target: T7, Cannabinoid receptor 2; experiment: SAR analysis of agonists of the Cannabinoid Receptor 2 using an Image-Based Assay - Set 3. [Related pubchem assays (depositor defined):AID2013, AID2026]; format: functional
Cannabinoid receptor 1 [24] = target: T9, Cannabinoid receptor 1 (Homo sapiens, UniProt P21554); experiment: SAR analysis of agonists of the Cannabinoid Receptor 1 using an Image-Based Assay - Set 4. [Related pubchem assays (depositor defined):AID2013, AID2026]; format: functional
[25] = target: T8, G-protein coupled receptor 35; experiment: SAR analysis of Antagonists of the GPR35 Receptor using an Image-Based Assay - Set 6. [Related pubchem assays (depositor defined):AID2013, AID2026]; format: functional
Cannabinoid receptor 1 [26] = target: T9, Cannabinoid receptor 1; experiment: SAR analysis of antagonists of the Cannabinoid Receptor 1 using an Image-Based Assay - Set 4. [Related pubchem assays (depositor defined):AID2013, AID2026]; format: functional
[27] = HEK-293T viability loss after treatment – luminescence, T-cell screen hits, cytotoxicity control for TCR NF-kB inhibitor project, dose response (AID 489026); format: functional, cell-based;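 further: cells exposed to compound about 14 hours before the viability readout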
[28] = target: T6, Tyrosine-protein phosphatase non-receptor type 22; experiment: inhibition of lymphoid tyrosine phosphatase LYP – biochemical, pCAP fluorogenic substrate, fluorescence, set 3, SAR follow-up (AID 449727); format: functional
[29] = target: Tyrosine-protein phosphatase non-receptor type 12 (Homo sapiens, UniProt Q05209); experiment: SAR Selectivity Analysis of small molecule inhibitors of PEST using pCAP in a fluorescence assay. [Related pubchem assays (depositor defined):AID1779, AID1784, AID2135]; format: functional
J774.A1 = experiment: Confirmation of image-based Screening Assay for Inhibitors of Phagocytosis. [Related pubchem assays (depositor defined):AID1029, AID1643]; format: functional, cell-based; conditions: Mus musculus
[30] = target: T6, Tyrosine-protein phosphatase non-receptor type 22; experiment: SAR LYP1 Fluorescent Assay using OMFP substrate for In Vitro dose response studies - Set 3. [Related pubchem assays (depositor defined):AID1779, AID1784, AID2140, AID2686]; format: functional
[31] = target: T5, Tyrosine-protein phosphatase non-receptor type 7; experiment: inhibition of hematopoietic tyrosine phosphatase HePTP – biochemical, set 2, SAR follow-up (AID 449736); format: functional

T2 sequence (P49327 whole entry): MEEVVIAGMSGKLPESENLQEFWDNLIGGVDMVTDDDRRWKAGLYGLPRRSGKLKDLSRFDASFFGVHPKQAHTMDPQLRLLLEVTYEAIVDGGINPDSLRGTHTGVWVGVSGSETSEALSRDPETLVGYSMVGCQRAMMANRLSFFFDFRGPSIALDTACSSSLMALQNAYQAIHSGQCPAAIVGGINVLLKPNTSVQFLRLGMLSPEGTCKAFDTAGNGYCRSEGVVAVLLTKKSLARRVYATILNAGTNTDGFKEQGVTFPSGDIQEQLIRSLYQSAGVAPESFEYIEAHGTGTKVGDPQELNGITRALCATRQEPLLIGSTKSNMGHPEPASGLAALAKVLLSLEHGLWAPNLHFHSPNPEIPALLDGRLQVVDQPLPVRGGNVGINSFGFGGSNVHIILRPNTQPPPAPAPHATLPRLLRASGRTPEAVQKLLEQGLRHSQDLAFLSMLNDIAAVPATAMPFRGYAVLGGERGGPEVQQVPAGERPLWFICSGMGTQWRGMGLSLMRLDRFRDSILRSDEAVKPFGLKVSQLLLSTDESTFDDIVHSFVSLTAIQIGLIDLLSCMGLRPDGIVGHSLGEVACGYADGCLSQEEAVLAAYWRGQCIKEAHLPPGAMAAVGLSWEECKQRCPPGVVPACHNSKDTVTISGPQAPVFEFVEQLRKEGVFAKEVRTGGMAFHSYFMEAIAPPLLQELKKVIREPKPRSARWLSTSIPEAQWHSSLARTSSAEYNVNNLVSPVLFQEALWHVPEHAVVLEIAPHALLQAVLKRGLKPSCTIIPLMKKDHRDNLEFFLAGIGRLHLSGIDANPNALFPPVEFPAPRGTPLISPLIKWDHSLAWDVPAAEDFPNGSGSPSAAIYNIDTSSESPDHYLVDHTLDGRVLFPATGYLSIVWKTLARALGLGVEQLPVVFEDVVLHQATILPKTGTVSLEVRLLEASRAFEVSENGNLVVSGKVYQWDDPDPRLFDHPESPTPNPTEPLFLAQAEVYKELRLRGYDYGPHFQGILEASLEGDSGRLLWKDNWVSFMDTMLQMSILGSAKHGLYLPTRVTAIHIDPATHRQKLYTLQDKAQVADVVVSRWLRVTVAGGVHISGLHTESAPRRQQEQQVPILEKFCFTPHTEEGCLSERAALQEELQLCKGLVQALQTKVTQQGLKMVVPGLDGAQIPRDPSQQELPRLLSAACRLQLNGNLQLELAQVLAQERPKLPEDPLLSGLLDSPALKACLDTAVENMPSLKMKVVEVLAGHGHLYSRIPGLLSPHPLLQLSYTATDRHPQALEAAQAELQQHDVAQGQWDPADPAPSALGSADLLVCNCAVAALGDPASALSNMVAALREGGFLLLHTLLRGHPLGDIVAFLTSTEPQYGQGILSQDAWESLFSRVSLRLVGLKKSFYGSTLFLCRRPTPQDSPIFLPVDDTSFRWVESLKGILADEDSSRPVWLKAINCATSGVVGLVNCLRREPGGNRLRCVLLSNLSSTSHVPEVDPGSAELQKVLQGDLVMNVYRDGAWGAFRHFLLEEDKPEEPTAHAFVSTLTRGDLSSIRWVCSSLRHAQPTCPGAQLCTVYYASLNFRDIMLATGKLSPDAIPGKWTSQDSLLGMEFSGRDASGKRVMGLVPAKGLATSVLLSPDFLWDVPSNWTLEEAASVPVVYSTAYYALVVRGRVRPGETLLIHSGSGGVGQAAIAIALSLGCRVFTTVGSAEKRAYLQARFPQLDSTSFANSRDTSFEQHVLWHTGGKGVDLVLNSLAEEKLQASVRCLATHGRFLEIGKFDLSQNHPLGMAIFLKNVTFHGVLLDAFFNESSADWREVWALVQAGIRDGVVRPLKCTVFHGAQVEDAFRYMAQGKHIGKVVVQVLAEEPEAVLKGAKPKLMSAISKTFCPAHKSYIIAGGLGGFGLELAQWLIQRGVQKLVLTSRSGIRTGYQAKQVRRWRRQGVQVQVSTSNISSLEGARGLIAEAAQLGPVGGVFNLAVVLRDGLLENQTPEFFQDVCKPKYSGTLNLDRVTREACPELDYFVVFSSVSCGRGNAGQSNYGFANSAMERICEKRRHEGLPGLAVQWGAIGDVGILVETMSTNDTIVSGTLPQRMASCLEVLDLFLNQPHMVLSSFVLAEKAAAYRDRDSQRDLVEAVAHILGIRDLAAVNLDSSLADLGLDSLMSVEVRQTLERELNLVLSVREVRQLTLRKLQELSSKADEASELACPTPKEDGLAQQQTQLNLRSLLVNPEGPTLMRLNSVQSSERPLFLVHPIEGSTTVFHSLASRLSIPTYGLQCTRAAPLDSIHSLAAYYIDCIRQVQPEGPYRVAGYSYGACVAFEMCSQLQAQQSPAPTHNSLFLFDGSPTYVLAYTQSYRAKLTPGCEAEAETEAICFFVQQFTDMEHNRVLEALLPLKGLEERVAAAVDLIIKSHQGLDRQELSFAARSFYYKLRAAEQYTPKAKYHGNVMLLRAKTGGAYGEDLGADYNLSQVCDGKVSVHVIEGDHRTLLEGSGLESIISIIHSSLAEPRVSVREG
T3 sequence (P41145 whole entry): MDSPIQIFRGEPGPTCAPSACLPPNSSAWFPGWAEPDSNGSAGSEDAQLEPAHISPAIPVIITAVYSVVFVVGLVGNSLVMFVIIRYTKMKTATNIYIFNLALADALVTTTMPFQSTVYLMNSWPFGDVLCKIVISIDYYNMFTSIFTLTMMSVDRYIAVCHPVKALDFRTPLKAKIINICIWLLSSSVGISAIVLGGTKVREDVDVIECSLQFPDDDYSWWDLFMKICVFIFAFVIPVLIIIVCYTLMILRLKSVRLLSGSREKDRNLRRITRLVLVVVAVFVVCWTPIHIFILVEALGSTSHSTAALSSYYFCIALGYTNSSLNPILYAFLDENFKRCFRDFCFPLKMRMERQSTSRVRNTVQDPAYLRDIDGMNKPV
T7 sequence (P34972 whole entry): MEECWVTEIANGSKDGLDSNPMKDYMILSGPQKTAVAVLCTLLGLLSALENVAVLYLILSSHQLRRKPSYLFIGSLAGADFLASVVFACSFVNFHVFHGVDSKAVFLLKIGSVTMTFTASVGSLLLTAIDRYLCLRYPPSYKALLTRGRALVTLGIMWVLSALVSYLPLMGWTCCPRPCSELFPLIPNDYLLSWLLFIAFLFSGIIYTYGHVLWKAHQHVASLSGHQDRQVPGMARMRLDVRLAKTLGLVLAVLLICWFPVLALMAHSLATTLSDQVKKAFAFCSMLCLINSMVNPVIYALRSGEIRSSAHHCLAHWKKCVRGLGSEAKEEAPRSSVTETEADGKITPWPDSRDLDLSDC
T4 sequence (P41143 whole entry): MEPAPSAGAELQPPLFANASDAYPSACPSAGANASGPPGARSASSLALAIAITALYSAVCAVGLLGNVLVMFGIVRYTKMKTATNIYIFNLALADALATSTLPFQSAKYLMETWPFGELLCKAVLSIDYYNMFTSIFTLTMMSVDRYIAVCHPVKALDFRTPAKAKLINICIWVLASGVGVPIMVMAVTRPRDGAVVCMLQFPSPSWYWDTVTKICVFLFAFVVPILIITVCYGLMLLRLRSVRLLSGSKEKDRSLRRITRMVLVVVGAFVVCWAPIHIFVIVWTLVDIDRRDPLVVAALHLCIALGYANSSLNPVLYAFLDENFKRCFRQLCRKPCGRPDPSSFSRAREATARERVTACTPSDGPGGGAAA
T8 sequence (Q9HC97 whole entry): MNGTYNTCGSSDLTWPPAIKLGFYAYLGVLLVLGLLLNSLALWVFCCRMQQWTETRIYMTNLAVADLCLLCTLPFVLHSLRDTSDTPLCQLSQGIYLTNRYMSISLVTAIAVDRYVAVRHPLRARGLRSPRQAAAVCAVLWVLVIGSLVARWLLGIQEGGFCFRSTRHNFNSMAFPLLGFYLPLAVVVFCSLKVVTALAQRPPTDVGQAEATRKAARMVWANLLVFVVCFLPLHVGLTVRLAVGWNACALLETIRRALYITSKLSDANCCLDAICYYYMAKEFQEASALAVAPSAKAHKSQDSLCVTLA
T9 sequence (P21554 whole entry): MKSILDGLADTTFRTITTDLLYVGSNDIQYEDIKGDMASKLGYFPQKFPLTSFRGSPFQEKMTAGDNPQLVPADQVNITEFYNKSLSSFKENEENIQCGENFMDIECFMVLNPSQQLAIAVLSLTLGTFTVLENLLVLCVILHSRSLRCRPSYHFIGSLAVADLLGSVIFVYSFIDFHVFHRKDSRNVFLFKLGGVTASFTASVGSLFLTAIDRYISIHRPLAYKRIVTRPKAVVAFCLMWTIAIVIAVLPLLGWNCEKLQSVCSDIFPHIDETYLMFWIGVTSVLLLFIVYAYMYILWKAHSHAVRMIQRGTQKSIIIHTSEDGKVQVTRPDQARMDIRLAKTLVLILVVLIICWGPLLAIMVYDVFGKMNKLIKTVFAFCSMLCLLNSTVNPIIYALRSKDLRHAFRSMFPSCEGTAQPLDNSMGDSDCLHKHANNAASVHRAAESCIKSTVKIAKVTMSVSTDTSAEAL
Sequence of G-protein coupled receptor 55 (Q9Y2T6 whole entry): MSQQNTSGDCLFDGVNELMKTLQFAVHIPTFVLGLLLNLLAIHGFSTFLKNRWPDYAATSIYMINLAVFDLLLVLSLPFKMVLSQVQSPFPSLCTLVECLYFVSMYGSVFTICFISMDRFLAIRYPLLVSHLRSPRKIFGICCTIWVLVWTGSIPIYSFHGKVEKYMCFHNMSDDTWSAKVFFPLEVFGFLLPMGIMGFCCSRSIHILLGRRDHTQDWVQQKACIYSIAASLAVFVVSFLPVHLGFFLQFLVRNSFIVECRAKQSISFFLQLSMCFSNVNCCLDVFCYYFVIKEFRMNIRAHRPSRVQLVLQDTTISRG

EC50 [13]: 26.4 µM
IC50 (Fatty acid synthase [8]): 8.26 µM (active)
EC50 [14]: > 32 µM (inactive)
IC50 [15]: > 32 µM (inactive)
IC50 (Fatty acid synthase [9]): 9.19 µM (active)
EC50 (Mu-type opioid receptor): > 32 µM (inactive)
EC50 [16]: > 35 µM
SMILES: O=C1C2ON(c3ccccc3)C(c3cccnc3)C2C(=O)N1c1ccc(Cl)c(Cl)c1 (stereo unspecified)

IC50 [17]: > 79.4 µM (inactive)
IC50 [18]: > 79.4 µM (inactive)
IC50 [19]: > 79.4 µM (inactive)
SMILES: CSc1nsc(SCC(=O)Nc2cccc(C(C)=O)c2)n1

More lines, now with the values behind:

SMILES: Cc1ccccc1Nc1nc(-c2ccccc2)c(C(=O)Nc2cccnc2)s1
EC50 [1]: > 79.4 µM (not active)
EC50 [2]: 12.6 µM (inactive)
EC50 [3]: 11.6 µM (not active)

SMILES: N#Cc1c(-c2ccccc2)ccn(Cc2cccc(Cl)c2)c1=O
IC50 (Exodeoxyribonuclease V): > 119 µM (inactive)
IC50 [4]: > 119 µM (inactive)

SMILES: NS(=O)(=O)c1ccc2c(c1)oc(=O)c1cc(S(N)(=O)=O)ccc12
IC50 [5]: 11.8 µM (active)
IC50 [6]: 7.73 µM (active)
IC50 [7]: 2.51 µM (active)

SMILES: COC(=O)N1C(=O)[C@](c2ccccc2)(C2CCCC2)N1C(=O)OC
IC50 (Fatty acid synthase [8]): 0.715 µM (active)
IC50 (Fatty acid synthase [9]): 0.884 µM (active)
CC50 [10]: > 50 µM (inactive)
CC50 [11]: > 50 µM (inactive)
IC50 [12]: 0.01 µM (active)

SMILES: CNC(=O)c1cc2c(=O)n3ccccc3nc2n(C2CCCC2)c1=N
IC50 (Cannabinoid receptor 2 [20]): > 32 µM (inactive)
IC50 [21]: 5.92 µM (active)
EC50 [22]: > 32 µM (inactive)
EC50 (Cannabinoid receptor 2 [23]): 2.52 µM (active)
EC50 (Cannabinoid receptor 1 [24]): > 32 µM (inactive)
IC50 [25]: > 32 µM (inactive)
IC50 (Cannabinoid receptor 1 [26]): > 32 µM (inactive)

SMILES: CCOC(=O)C(C)Oc1cccc2c(=O)n(CC(=O)NCc3ccc4c(c3)OCO4)ccc12 (stereo unspecified)
IC50 [27]: > 80 µM (inactive)
IC50 [28]: > 100 µM (inactive)
IC50 [29]: > 100 µM (inactive)
IC50 (J774.A1): 4.93 µM (active)
IC50 [30]: > 100 µM (inactive)
IC50 [31]: 11.4 µM (active)
